Source: patent publication US20080287375A1, “Selective Glycosidase Inhibitors, Methods of Making Inhibitors, and Uses Thereof” (SIMON FRASER UNIVERSITY, priority 2005, published 2008)

Experiments:
[1] = Intravenous glucose tolerance test (IVGTT) in rats; format: in vivo, rat; conditions: 50 mg kg^−1 tail vein
Experimental: Eight give-week old healthy Sprague-Dawley rats (Charles River) were caged in pairs. The animals were allowed to acclimatize to their new surroundings at the Simon Fraser University Animal Care Facilities (SFU ACF) for one week. At 3:00 pm, four rats were given a tail vein injection of 400 μl of inhibitor 9c dissolved in PBS buffer (pH 7.4) at a dose of 50 mg kg^−1. The remaining four rats were given a tail vein injection of 400 μl of PBS as a control. All solutions were pre-sterilized through a 0.2 μm filter (Millipore) and injected with 0.5 mL syringes containing a 28 gauge×0.5″ needle (Terumo) as bolus over 10 seconds. Food was withdrawn at approximately 11:00 pm. At 8:30 am the following morning, the rats were given a second injection. After three hours the rats were anesthetized with isoflurane and a 100 μL blood sample was taken from the jugular vein to measure the fasting blood glucose levels. An intravenous glucose tolerance test (IVGTT) was then performed. A 0.5 mL injection of a 50% w/v solution of glucose dissolved in PBS (pre-sterilized) was administered via the tail vein over 30 seconds. At 10, 20, 30, 40, 60, and 90 minutes after the injection of glucose, a 100 μL sample of blood was taken from the jugular vein. […] The soluble cell extract was then analyzed for levels O-GlcNAc modified proteins using Western blot analysis as described above for the cell studies.

[2] = tested on: O-GlcNAc modified proteins in rat tissues; experiment: Oral availability: tissue O-GlcNAc levels in rats fed inhibitor in chow; format: in vivo
Experimental: To determine if the inhibitor 9c is orally available, it was incorporated into the chow (Lab Diet 5001 Rodent Diet, PMI Nutrition International, LLC). To make the rat chow, 600 g of the ground chow was mixed with 355 ml of water and 5 μL of the inhibitor dissolved in ethanol. Small pieces were then prepared with a pasta machine (Pasta Express, Creative) and dehydrated overnight at 37° C. (Snackmaster Dehydrator, American Harvest). Five sets of chow were made with the following amounts of inhibitor: 0 mg kg^−1 days^−1, 100 or 1000 mg kg^−1 days^−1 of the deprotected (polar) inhibitor, and 100 or 1000 mg kg^−1 day^−1 of the protected (non-polar) inhibitor. […] Ten five-week old healthy Sprague-Dawley rats (two per set of food) were then allowed to feed on the rat chow for three days. The animals were then sacrificed and tissues were collected, homogenized, and analyzed as described above.

[3] = rats fed inhibitor in food for three days

**Q.** Which “levels of O-GlcNAc modified proteins in rats of the IVGTT” value ([1]; Western blot) does the source give for CCCC1=N[C@@H]2[C@@H](O)[C@H](O)[C@@H](CO)O[C@@H]2S1 [Compound 9c, 1,2-dideoxy-2′-propyl-α-D-glucopyranoso-[2,1-d]-2′-thiazoline] here?
**A.** Its value is “increased levels”.

**Q.** And the “glucose clearance rate in IVGTT” value ([1]; short term exposure (<24 hours), 1 g kg^−1 glucose challenge)?
**A.** The value was “does not affect the glucose clearance rate”.

**Q.** What about the “cellular levels of O-GlcNAc modified proteins in brain tissue, oral 100 mg/kg/day” value ([2]; rats fed inhibitor in chow for three days) of the same molecule?
**A.** The value was “marked increases”.

**Q.** What about the “cellular levels of O-GlcNAc modified proteins in brain tissue, oral 1000 mg/kg/day” value ([2]; rats fed inhibitor in chow for three days, compared with 100 mg/kg/day) of the same molecule?
**A.** The value was “even greater”.

**Q.** What about the “O-GlcNAc modified proteins in brain, muscle, pancreas, fat and spleen, oral 100 mg kg^−1 day^−1 (FIG. 12 legend)” value [2, 3] of the same molecule?
**A.** The value was “large increases”.

**Q.** And the “O-GlcNAc modified proteins in tissues, oral 1000 mg kg^−1 days^−1 (FIG. 12 legend)” value [2, 3]?
**A.** The value was “slightly greater increases”.
